{"source": "ChEMBL document CHEMBL1949499", "about": "“Nicotinic acids: liver-targeted SCD inhibitors with preclinical anti-diabetic efficacy” (Bioorg Med Chem Lett, 2011)", "key": {"[1]": {"test": "Drug uptake in C57/BL6 mouse kidney at 30 mg/kg, po after 6 hrs", "format": "ADME, organism-based", "set-up": "dose 30 mg/kg, route oral", "conditions": "read-out: Drug uptake"}, "[2]": {"test": "Drug uptake in C57/BL6 mouse kidney at 30 mg/kg, po after 2 hrs", "format": "ADME, organism-based", "set-up": "dose 30 mg/kg, route oral", "conditions": "read-out: Drug uptake"}, "Mus musculus [3]": {"test_system": "Mus musculus", "test": "Inhibition of SCD activity in high sucrose/fat free diet fed C57/BL6 mouse liver assessed as reduction in conversion of [14C]stearic acid to [14C]oleic acid at 100 mg/kg, po", "format": "functional"}, "[4]": {"test": "Drug uptake in C57/BL6 mouse left epididymal fat at 30 mg/kg, po after 24 hrs", "format": "ADME, organism-based, Epididymal fat pad", "set-up": "dose 30 mg/kg, route oral", "conditions": "male, read-out: Drug uptake"}, "HepG2": {"test_system": "HepG2", "test": "Selectivity ratio of IC50 for human SCD1 expressed in human HepG2 cells to IC50 for rat SCD1 in Sprague-Dawley rat hepatocytes", "format": "cell-based"}, "Mus musculus [5]": {"test_system": "Mus musculus", "test": "Inhibition of SCD activity in high sucrose/fat free diet fed C57/BL6 mouse liver assessed as reduction in conversion of [14C]stearic acid to [14C]oleic acid at 10 mg/kg, po", "format": "functional"}, "[6]": {"test": "Plasma clearance in Sprague-Dawley rat at 10 mg/kg, po and 2 mg/kg, iv", "format": "ADME, organism-based"}, "[7]": {"test": "Drug uptake in C57/BL6 mouse heart at 30 mg/kg, po after 2 hrs", "format": "ADME, organism-based", "set-up": "dose 30 mg/kg, route oral", "conditions": "read-out: Drug uptake"}, "[8]": {"test": "Drug uptake in C57/BL6 mouse cerebellum at 30 mg/kg, po after 6 hrs", "format": "ADME, organism-based", "set-up": "dose 30 mg/kg, route oral", "conditions": "read-out: Drug uptake"}, "Mus musculus [9]": {"test_system": "Mus musculus", "test": "Acute antidiabetic activity in high fat diet fed po dosed C57/BL6 mouse eDIO model assessed as increase in glucose clearance administered 1 hr prior to glucose challenge by oGTT assay", "format": "functional, organism-based"}, "Mus musculus [10]": {"test_system": "Mus musculus", "test": "Inhibition of SCD activity in high sucrose/fat free diet fed po dosed C57/BL6 mouse liver assessed as reduction in conversion of [14C]stearic acid to [14C]oleic acid", "format": "functional, organism-based"}, "Acyl-CoA desaturase 1 [11]": {"target": "T1, Acyl-CoA desaturase 1 (Rattus norvegicus, UniProt P07308)", "T1 sequence (P07308 whole entry)": "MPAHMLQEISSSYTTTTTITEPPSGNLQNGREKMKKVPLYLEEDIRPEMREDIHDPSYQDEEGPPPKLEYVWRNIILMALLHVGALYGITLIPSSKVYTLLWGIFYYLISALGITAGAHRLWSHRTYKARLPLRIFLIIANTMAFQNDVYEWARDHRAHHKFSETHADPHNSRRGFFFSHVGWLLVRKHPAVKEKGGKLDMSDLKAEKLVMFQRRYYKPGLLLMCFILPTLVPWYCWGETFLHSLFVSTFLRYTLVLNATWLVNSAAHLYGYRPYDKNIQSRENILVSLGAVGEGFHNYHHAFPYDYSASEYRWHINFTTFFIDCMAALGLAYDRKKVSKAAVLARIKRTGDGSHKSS", "test": "Inhibition of rat SCD1"}, "[12]": {"test": "Drug uptake in C57/BL6 mouse left median liver lobe at 30 mg/kg, po after 2 hrs", "format": "ADME, organism-based", "set-up": "dose 30 mg/kg, route oral", "conditions": "read-out: Drug uptake"}, "[13]": {"test": "Plasma concentration in C57/BL6 mouse at 30 mg/kg, po after 6 hrs", "format": "ADME, organism-based", "set-up": "dose 30 mg/kg, route oral"}, "[14]": {"test": "Drug uptake in high sucrose/fat free diet fed C57/BL6 mouse liver at 100 mg/kg, po after 3 hrs", "format": "ADME, organism-based", "set-up": "dose 100 mg/kg, route oral", "conditions": "read-out: Drug uptake"}, "[15]": {"test": "Drug uptake in C57/BL6 mouse heart at 30 mg/kg, po after 24 hrs", "format": "ADME, organism-based", "set-up": "dose 30 mg/kg, route oral", "conditions": "read-out: Drug uptake"}, "[16]": {"test": "Drug uptake in C57/BL6 mouse harderian glands at 30 mg/kg, po after 2 hrs", "format": "ADME, organism-based, Harderian gland", "set-up": "dose 30 mg/kg, route oral", "conditions": "read-out: Drug uptake"}, "Stearoyl-CoA desaturase": {"target": "T2, Stearoyl-CoA desaturase (Homo sapiens, UniProt O00767)", "T2 sequence (O00767 whole entry)": "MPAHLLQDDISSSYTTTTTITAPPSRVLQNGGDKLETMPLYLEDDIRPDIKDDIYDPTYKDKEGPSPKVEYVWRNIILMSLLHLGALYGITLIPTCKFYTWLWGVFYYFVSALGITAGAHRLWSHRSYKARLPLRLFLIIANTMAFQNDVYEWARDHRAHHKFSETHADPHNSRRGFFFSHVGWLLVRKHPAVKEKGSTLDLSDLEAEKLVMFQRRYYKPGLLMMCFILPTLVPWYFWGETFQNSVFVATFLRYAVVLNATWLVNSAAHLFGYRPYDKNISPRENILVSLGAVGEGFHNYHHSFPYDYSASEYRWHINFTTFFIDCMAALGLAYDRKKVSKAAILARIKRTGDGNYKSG", "test": "Inhibition of human SCD1 expressed in human HepG2 cells assessed as conversion of [14C]stearic acid to [14C]oleic acid", "format": "cell-based"}, "[17]": {"test": "Drug uptake in high sucrose/fat free diet fed C57/BL6 mouse liver at 30 mg/kg, po after 3 hrs", "format": "ADME, organism-based", "set-up": "dose 30 mg/kg, route oral", "conditions": "read-out: Drug uptake"}, "[18]": {"test": "Drug uptake in C57/BL6 mouse harderian glands at 30 mg/kg, po after 6 hrs", "format": "ADME, organism-based, Harderian gland", "set-up": "dose 30 mg/kg, route oral", "conditions": "read-out: Drug uptake"}, "Nucleic Acid [19]": {"test_system": "Nucleic Acid", "test": "Ratio of drug uptake in left median liver lobe to harderian gland in C57/BL6 mouse at 30 mg/kg, po after 6 hrs", "format": "ADME, organism-based", "set-up": "dose 30 mg/kg, route oral", "conditions": "in vivo"}, "Mus musculus [20]": {"test_system": "Mus musculus", "test": "Acute antidiabetic activity in high fat diet fed C57/BL6 mouse eDIO model assessed as increase in glucose clearance at 30 mg/kg, po administered 1 hr prior to glucose challenge by oGTT assay", "format": "functional"}, "[21]": {"test": "Drug uptake in high sucrose/fat free diet fed C57/BL6 mouse liver at 10 mg/kg, po after 3 hrs", "format": "ADME, organism-based", "set-up": "dose 10 mg/kg, route oral", "conditions": "read-out: Drug uptake"}, "[22]": {"test": "Plasma concentration in high sucrose/fat free diet fed C57/BL6 mouse at 100 mg/kg, po after 3 hrs", "format": "ADME, organism-based", "set-up": "dose 100 mg/kg, route oral"}, "Acyl-CoA desaturase 1 [23]": {"target": "T1, Acyl-CoA desaturase 1", "test": "Inhibition of SCD1 in Sprague-Dawley rat hepatocytes assessed as conversion of [14C]oleic acid formation by HPLC analysis", "format": "cell-based, Hepatocyte"}, "Nucleic Acid [24]": {"test_system": "Nucleic Acid", "test": "Ratio of drug uptake in left median liver lobe to harderian gland in C57/BL6 mouse at 30 mg/kg, po after 2 hrs", "format": "ADME, organism-based", "set-up": "dose 30 mg/kg, route oral", "conditions": "in vivo"}, "[25]": {"test": "Oral bioavailability in Sprague-Dawley rat plasma at 10 mg/kg", "format": "ADME, organism-based"}}}
{"smiles": "O=C(O)c1cncc(-c2ccc(N3CCC(Oc4cc(F)ccc4Br)CC3)nn2)c1", "values": [{"measurement": "concentration at 6 h", "setting": "[1]", "value": 1920, "unit": "nM"}, {"measurement": "concentration at 2 h", "setting": "[2]", "value": 6140, "unit": "nM"}, {"measurement": "inhibition in vivo at 100 mg/kg", "setting": "Mus musculus [3]", "value": 86, "unit": "%"}, {"measurement": "concentration at 24 h", "setting": "[4]", "value": 45, "unit": "nM"}, {"measurement": "Ratio IC50", "setting": "HepG2", "value": 34}, {"measurement": "inhibition in vivo at 10 mg/kg", "setting": "Mus musculus [5]", "value": 25, "unit": "%"}, {"measurement": "clearance", "setting": "[6]", "value": 8.6, "unit": "mL/min/kg"}, {"measurement": "concentration at 2 h", "setting": "[7]", "value": 177, "unit": "nM"}, {"measurement": "concentration at 6 h", "setting": "[8]", "value": 17, "unit": "nM"}, {"measurement": "Activity", "setting": "Mus musculus [9]", "value": "Dose-dependent effect"}, {"measurement": "inhibition", "setting": "Mus musculus [10]", "value": "Dose-dependent effect"}, {"measurement": "IC50", "setting": "Acyl-CoA desaturase 1 [11]", "value": 15, "unit": "nM"}, {"measurement": "concentration at 2 h", "setting": "[12]", "value": 4390, "unit": "nM"}, {"measurement": "concentration at 6 h", "setting": "[13]", "value": 626, "unit": "nM"}, {"measurement": "concentration at 3 h", "setting": "[14]", "value": 53000, "unit": "nM"}, {"measurement": "concentration at 24 h", "setting": "[15]", "value": 32, "unit": "nM"}, {"measurement": "concentration at 2 h", "setting": "[16]", "value": 389, "unit": "nM"}, {"measurement": "IC50", "setting": "Stearoyl-CoA desaturase", "value": 6030, "unit": "nM"}, {"measurement": "concentration at 3 h", "setting": "[17]", "value": 9290, "unit": "nM"}, {"measurement": "concentration at 6 h", "setting": "[18]", "value": 98, "unit": "nM"}, {"measurement": "Ratio", "setting": "Nucleic Acid [19]", "value": "> 50"}, {"measurement": "Activity", "setting": "Mus musculus [20]", "value": 59, "unit": "%"}, {"measurement": "concentration at 3 h", "setting": "[21]", "value": 2970, "unit": "nM"}, {"measurement": "concentration at 3 h", "setting": "[22]", "value": 4390, "unit": "nM"}, {"measurement": "IC50", "setting": "Acyl-CoA desaturase 1 [23]", "value": 175, "unit": "nM"}, {"measurement": "Ratio", "setting": "Nucleic Acid [24]", "value": 11}, {"measurement": "bioavailability", "setting": "[25]", "value": 43, "unit": "%"}]}
